# Source: patent US20080107619A1, “Carbohydrate based cellulase inhibitors as feeding stimulants in termites” (University of Florida Research Foundation, Inc., priority 2006, published 2008)
# “Also recorded” adds a separate entry of the source.
# Tested on: R. flavipes worker termites
# Assay: No-choice Petri dish in vivo feeding bioassay (feeding and mortality, 24 days)
# Settings: for Average Feeding in mg per Live Termite (std. err.) days 1-8 / Average Feeding in mg per Live Termite (std. err.) days 9-16 / Average Feeding in mg per Live Termite (std. err.) days 17-24 / Normalized Avg. Totals: 1st ROUND (lab colony); for Normalized Avg. Totals: relative to control [0] average
# Protocol: R. flavipes colonies were collected from the University of Florida campus during spring and summer 2006. Colonies were maintained in sealed plastic boxes (30×24×10 cm) at 22±1° C. and 69±1% RH. Colonies were maintained without soil and provisioned with moist brown paper towels and wood shims. Colonies that were acclimated under the above conditions for <2 months are referred to as “field colonies”, while those held for >6 months are referred to as “lab colonies”. Unless otherwise stated, all studies reported here were run with lab colonies.
# Two different termite colonies were used. A lab colony was used in bioassays that tested the effects of CBI and FMG; this was the same colony used in cellulase optimization studies, cellulase distribution studies, and for […] determination. The other colony was a field colony, which was used to repeat the FMG assay along side FMCB. The no-choice feeding bioassay was derived from a previously-developed and slightly modified caste differentiation assay reported by M. E. Scharf, et al. in “Caste differentiation responses of two sympatric Reticulitermes termite species to juvenile hormone homologs and synthetic juvenoids in two laboratory assays.” Insectes Soc. […] Acad. Sci. USA, 103 (2006) 4499-504.
# Prior to treatment, paper disks 30 were weighed. Treatments and controls were held in complete darkness at approximately 26±1° C. and 69±1% RH. The inhibitor concentrations tested were 75, 50, 25, 10, 5, 1, 0.5, and 0.1 mM (approximately […] wt/wt). For each inhibitor, paper disks were treated with 50 μl of a given concentration. Control disks received 50 μl methanol alone. Treated papers were allowed to dry in a fume hood for 30 min before placing in dishes, wetting with 25 μl water, and adding 15 termites.
# Termite feeding on the filter papers was readily observable and quantifiable from the bioassays. Average feeding through the entire bioassay was summed within each replicate and calculated as a percentage of feeding relative to untreated controls, then averaged across replicates.
# The experimental design consisted of three replicate dishes per concentration. All assays were carried out for a total of 24 days. Termite mortality and filter paper moisture were monitored every 4th day. Every 8th day, old paper disks were replaced with new ones. These new filter paper disks were treated with identical inhibitor concentrations. The removed filter paper disks 30, showing the results of termite feeding (FIG. 6), were dried and re-weighed. At the end of each assay, data were summarized as cumulative feeding per live termite and cumulative termite mortality. Data were analyzed by non-parametric t-tests (p<0.05) with commercially-available software for use in statistical analysis, designed by SAS Institute, Cary, N.C.
# FIGS. 7A-7F provide graphic data on in vivo feeding bioassays conducted with the carbohydrate-based cellulase inhibitors to assess the impact on termite feeding and survivorship. Feeding results are expressed as the cumulative percent of untreated controls through 24 days. Mortality results are expressed as percent mortality after 24 days. […] Error bars represent standard error of the mean.
compound,measurement,setting,value
"OC[C@@H]1[C@@H](O[C@@H]2O[C@H](CO)[C@@H](O)[C@H](O)[C@H]2O)[C@H](O)[C@@H](O)c2nccn21 [CBI, cellobioimidazole]",Average Feeding in mg per Live Termite (std. err.) days 1-8,0.1 mM test conc.,0.44 (0.04) mg per Live Termite
same,Average Feeding in mg per Live Termite (std. err.) days 9-16,0.1 mM test conc.,0.42 (0.11) mg per Live Termite
same,Average Feeding in mg per Live Termite (std. err.) days 17-24,0.1 mM test conc.,0.45 (0.04) mg per Live Termite
same,Normalized Avg. Totals,0.1 mM test conc.,1.98
same,Average Feeding in mg per Live Termite (std. err.) days 1-8,0.5 mM test conc.,0.45 (0.03) mg per Live Termite
same,Average Feeding in mg per Live Termite (std. err.) days 9-16,0.5 mM test conc.,0.51 (0.06) mg per Live Termite
same,Average Feeding in mg per Live Termite (std. err.) days 17-24,0.5 mM test conc.,0.33 (0.04) mg per Live Termite
same,Normalized Avg. Totals,0.5 mM test conc.,1.02
same,Average Feeding in mg per Live Termite (std. err.) days 1-8,1 mM test conc.,0.49 (0.12) mg per Live Termite
same,Average Feeding in mg per Live Termite (std. err.) days 9-16,1 mM test conc.,0.53 (0.03) mg per Live Termite
same,Average Feeding in mg per Live Termite (std. err.) days 17-24,1 mM test conc.,0.35 (0.04) mg per Live Termite
same,Normalized Avg. Totals,1 mM test conc.,1.05
same,Average Feeding in mg per Live Termite (std. err.) days 1-8,5 mM test conc.,0.66 (0.05) mg per Live Termite
same,Average Feeding in mg per Live Termite (std. err.) days 9-16,5 mM test conc.,0.55 (0.11) mg per Live Termite
same,Average Feeding in mg per Live Termite (std. err.) days 17-24,5 mM test conc.,0.40 (0.89) mg per Live Termite
same,Normalized Avg. Totals,5 mM test conc.,1.34
same,Average Feeding in mg per Live Termite (std. err.) days 1-8,10 mM test conc.,0.38 (0.05) mg per Live Termite
same,Average Feeding in mg per Live Termite (std. err.) days 9-16,10 mM test conc.,0.43 (0.05) mg per Live Termite
same,Average Feeding in mg per Live Termite (std. err.) days 17-24,10 mM test conc.,0.33 (0.05) mg per Live Termite
same,Normalized Avg. Totals,10 mM test conc.,1.03
same,Average Feeding in mg per Live Termite (std. err.) days 1-8,25 mM test conc.,0.23 (0.01) mg per Live Termite
same,Average Feeding in mg per Live Termite (std. err.) days 9-16,25 mM test conc.,0.47 (0.44) mg per Live Termite
same,Average Feeding in mg per Live Termite (std. err.) days 17-24,25 mM test conc.,0.39 (0.01) mg per Live Termite
same,Normalized Avg. Totals,25 mM test conc.,0.95
same,Average Feeding in mg per Live Termite (std. err.) days 1-8,50 mM test conc.,0.17 (0.03) mg per Live Termite
same,Average Feeding in mg per Live Termite (std. err.) days 9-16,50 mM test conc.,0.41 (0.05) mg per Live Termite
same,Average Feeding in mg per Live Termite (std. err.) days 17-24,50 mM test conc.,0.38 (0.03) mg per Live Termite
same,Normalized Avg. Totals,50 mM test conc.,0.85
same,highest mortality observed,"0.05 and 0.2% concentrations, after 24 days, FIG. 10B",around 20%
same,Average Feeding in mg per Live Termite (std. err.) days 1-8,75 mM test conc.,0.16 (0.01) mg per Live Termite
same,Average Feeding in mg per Live Termite (std. err.) days 9-16,75 mM test conc.,0.24 (0.05) mg per Live Termite
same,Average Feeding in mg per Live Termite (std. err.) days 17-24,75 mM test conc.,0.27 (0.01) mg per Live Termite
same,Normalized Avg. Totals,75 mM test conc.,0.59
same,mortality,"1-5 mM (0.05-0.2% wt/wt), after 24 days",approximately 20%
same,Effect on feeding (cumulative percent of untreated controls through 24 days),"across tested concentrations 0.1-75 mM, FIGS. 7A-7C, 8A-8B","both inhibitory and stimulatory effects, depending on concentration; also recorded: either inhibitory or stimulatory to feeding, depending on concentration"
same,cumulative termite mortality (comparison between inhibitors),"after 24 days, FIGS. 7D-7F, 10A-10B",substantially greater than the mortality caused by FMG
same,"mortality, one replicate","one replicate of the 0.05% concentration, after 24 days",over 30%
